Measured values: patent US20160120863A1, “SLC2A TRANSPORTER INHIBITORS” (IOMET PHARMA LTD., priority 2013, published 2016)

Target: T1, human GLUT1 (Homo sapiens, UniProt P11166)
T1 construct: expressed in transfected cells
T1 sequence (P11166 1-492): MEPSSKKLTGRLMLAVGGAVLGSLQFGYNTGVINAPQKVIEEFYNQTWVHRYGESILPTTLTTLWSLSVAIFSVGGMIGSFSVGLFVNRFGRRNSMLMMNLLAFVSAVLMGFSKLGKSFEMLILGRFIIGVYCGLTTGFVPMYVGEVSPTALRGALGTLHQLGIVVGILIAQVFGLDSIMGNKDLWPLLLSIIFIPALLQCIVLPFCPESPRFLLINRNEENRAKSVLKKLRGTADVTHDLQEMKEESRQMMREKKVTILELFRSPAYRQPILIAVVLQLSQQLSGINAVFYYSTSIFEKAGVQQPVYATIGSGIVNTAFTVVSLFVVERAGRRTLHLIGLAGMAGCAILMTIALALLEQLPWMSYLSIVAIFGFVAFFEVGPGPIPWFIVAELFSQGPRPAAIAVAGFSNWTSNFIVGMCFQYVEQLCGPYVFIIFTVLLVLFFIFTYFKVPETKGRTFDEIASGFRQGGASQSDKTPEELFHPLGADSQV
Assay: [3H]-deoxy-D-glucose uptake assay, GLUT1
Type: cell-based
Details: [3H]-deoxy-D-glucose uptake in HEK293 cells stably expressing human GLUT1
Experimental: HEK293 cells were engineered to stably express either human GLUT1, GLUT2, GLUt3 or GLUT4 by transfection with the pReceiver-Lv105 plasmid, containing either hGLUT1, hGLUT2, hGLUT3, or hGLUT4 gene constructs with lipofectamine 2000, hGLUT1- hGLUT2- hGLUT3- or hGLUT4-overexpressing polyclonal populations were isolated under purinomycin selective pressure (1 μg/ml) and maintained in Dulbecco's modified Eagle's medium supplemented with 1 μg/ml purinomycin+10% foetal bovine serum (FBS).
60,000 cells per well were seeded overnight into poly-D-lysine coasted 96-well plates. […] 90 μl of test compounds were added in glucose-free uptake buffer and cells were incubated at 37° C. for 30 min.
Cells were then washed twice with ice-cold PBS and 100 μl of Microscint-20 was added per well. Glucose uptake was quantified with a scintillation counter. The half maximal inhibitory concentration (IC50) (a measure of the effectiveness of the test compound in inhibiting glucose uptake) was determined.

Row | SMILES | GLUT1 pIC50
1 | O=C(Cc1ccc(F)cc1)N1CCN(Cc2c(-c3ccc(Cl)cc3)nc3ccc(-c4ccccc4)cn23)CC1 [Compound 63] | ++ (pIC50 5.00-5.99)
2 | O=C(c1ccccc1Cl)N1CCN(Cc2c(-c3ccc(Cl)cc3)nc3ccc(-c4ccccc4)cn23)CC1 [Compound 64] | + (pIC50 4.00-4.99)
3 | COc1cccc(-c2nc3ccc(-c4ccccc4)cn3c2CN2CCN(C(=O)CC(C)(C)C)CC2)c1 [Compound 65] | ++ (pIC50 5.00-5.99)
4 | O=C(C1CCCC1)N1CCN(Cc2c(-c3cccc([N+](=O)[O-])c3)nc3ccc(-c4ccccc4)cn23)CC1 [Compound 66] | ++ (pIC50 5.00-5.99)
5 | Cc1ccc(-c2nc3ccc(-c4ccccc4)cn3c2CN2CCN(C(=O)c3cccs3)CC2)cc1 [Compound 67] | +++ (pIC50 ≧ 6.00)
6 | COc1ccc(NC(=O)N2CCN(Cc3c(-c4ccc(Cl)cc4)nc4ccc(-c5ccccc5)cn34)CC2)cc1 [Compound 68] | + (pIC50 4.00-4.99)
7 | Cc1ccc(C(=O)N2CCN(Cc3c(-c4ccc(Cl)cc4)nc4ccc(-c5ccccc5)cn34)CC2)cc1 [Compound 69] | +++ (pIC50 ≧ 6.00)
8 | COc1ccc(C(=O)N2CCN(Cc3c(-c4ccc(F)cc4)nc4ccc(-c5ccccc5)cn34)CC2)cc1 [Compound 70] | +++ (pIC50 ≧ 6.00)
9 | COc1cccc(-c2nc3ccc(-c4ccccc4)cn3c2CN2CCN(C(=O)c3ccccc3F)CC2)c1 [Compound 71] | +++ (pIC50 ≧ 6.00)
10 | c1ccc(-c2ccc3nc(-c4ccncc4)c(CN4CCOCC4)n3c2)cc1 [Compound 72] | +− (pIC50 < 4.00)
11 | COCc1c(-c2ccc(Cl)cc2)nc2ccc(-c3ccccc3)cn12 [Compound 73] | + (pIC50 4.00-4.99)
12 | Clc1ccc(-c2nc3cnc(-c4ccccc4)cn3c2CN2CCOCC2)cc1 [Compound 75] | +++ (pIC50 ≧ 6.00)
13 | Fc1ccc(-c2nc3ccc(-c4ccccc4)cn3c2CN2CCOCC2)cc1 [Compound 76] | + (pIC50 4.00-4.99)
14 | Clc1ccc(-c2nc3ncc(-c4ccccc4)cn3c2CN2CCOCC2)cc1 [Compound 77] | +− (pIC50 < 4.00)
15 | CCNC(=O)c1nc2ccc(-c3ccccc3)cn2c1CN1CCOCC1 [Compound 78] | +− (pIC50 < 4.00)
16 | Fc1cccc(-c2ccc3nc(-c4ccc(Cl)cc4)c(CN4CCOCC4)n3c2)c1 [Compound 81] | + (pIC50 4.00-4.99)
17 | Clc1ccc(-c2nc3ccc(-c4ccncc4)cn3c2CN2CCOCC2)cc1 [Compound 82] | ++ (pIC50 5.00-5.99)
18 | Clc1ccc(-c2nc3ccc(-c4cccnc4)cn3c2CN2CCOCC2)cc1 [Compound 83] | ++ (pIC50 5.00-5.99)
19 | COc1cccc(-c2ccc3nc(-c4ccc(Cl)cc4)c(CN4CCOCC4)n3c2)c1 [Compound 84] | ++ (pIC50 5.00-5.99)

Row | SMILES | GLUT1 pIC50
20 | COc1ccccc1-c1ccc2nc(-c3ccc(Cl)cc3)c(CN3CCOCC3)n2c1 [Compound 85] | ++ (pIC50 5.00-5.99)
21 | COc1ccc(-c2ccc3nc(-c4ccc(Cl)cc4)c(CN4CCOCC4)n3c2)cc1 [Compound 86] | + (pIC50 4.00-4.99)
22 | Clc1ccc(-c2nc3ccc(C4CC4)cn3c2CN2CCOCC2)cc1 [Compound 87] | ++ (pIC50 5.00-5.99)
23 | CC(C)(C)OC(=O)N1CCN(Cc2c(-c3ccc(Cl)cc3)nc3ccc(-c4ccccc4)cn23)CC1 [Compound 88] | +− (pIC50 < 4.00)
24 | Clc1ccc(-c2nc3ccc(-c4ccccc4)cn3c2CN2CCNCC2)cc1 [Compound 89] | + (pIC50 4.00-4.99)
25 | O=S(=O)(c1cccc(F)c1)N1CCN(Cc2c(-c3ccc(Cl)cc3)nc3ccc(-c4ccccc4)cn23)CC1 [Compound 90] | +− (pIC50 < 4.00)
26 | N#Cc1cccc(-c2ccc3nc(-c4ccc(Cl)cc4)c(CN4CCOCC4)n3c2)c1 [Compound 92] | +− (pIC50 < 4.00)
27 | NC(=O)c1ccccc1-c1ccc2nc(-c3ccc(Cl)cc3)c(CN3CCOCC3)n2c1 [Compound 94] | + (pIC50 4.00-4.99)
28 | NC(=O)c1ccc(-c2ccc3nc(-c4ccc(Cl)cc4)c(CN4CCOCC4)n3c2)cc1 [Compound 95] | + (pIC50 4.00-4.99)
29 | CN(C)Cc1c(-c2ccc(Cl)cc2)nc2ccc(-c3ccccc3)cn12 [Compound 97] | + (pIC50 4.00-4.99)
30 | Clc1ccc(-c2nc3ccc(-c4ccccc4)cn3c2CN2CCCCC2)cc1 [Compound 98] | + (pIC50 4.00-4.99)
31 | N#Cc1cccc(-c2nc3ccc(-c4ccccc4)cn3c2CN2CCOCC2)c1 [Compound 100] | + (pIC50 4.00-4.99)
32 | COc1ccc(-c2nc3ccc(-c4ccccc4)cn3c2CN2CCOCC2)cc1 [Compound 101] | ++ (pIC50 5.00-5.99)
33 | COc1cccc(-c2nc3ccc(-c4ccccc4)cn3c2CN2CCOCC2)c1 [Compound 102] | ++ (pIC50 5.00-5.99)
34 | c1ccc(-c2ccc3nc(-c4ccccc4)c(CN4CCOCC4)n3c2)cc1 [Compound 103] | + (pIC50 4.00-4.99)
35 | COc1ccccc1-c1nc2ccc(-c3ccccc3)cn2c1CN1CCOCC1 [Compound 104] | + (pIC50 4.00-4.99)
36 | Clc1ccccc1-c1nc2ccc(-c3ccccc3)cn2c1CN1CCOCC1 [Compound 105] | ++ (pIC50 5.00-5.99)
37 | N#Cc1ccc(-c2nc3ccc(-c4ccccc4)cn3c2CN2CCOCC2)cc1 [Compound 106] | +− (pIC50 < 4.00)
38 | Clc1cccc(-c2nc3ccc(-c4ccccc4)cn3c2CN2CCOCC2)c1 [Compound 107] | ++ (pIC50 5.00-5.99)

Row | SMILES | GLUT1 pIC50
39 | NC(=O)c1ccc(-c2nc3ccc(-c4ccccc4)cn3c2CN2CCOCC2)cc1 [Compound 109] | +− (pIC50 < 4.00)
40 | Clc1ccc(-c2nc3ccc(-c4cncnc4)cn3c2CN2CCOCC2)cc1 [Compound 110] | + (pIC50 4.00-4.99)
41 | FC(F)(F)c1ccc(-c2nc3ccc(-c4ccccc4)cn3c2CN2CCOCC2)cc1 [Compound 112] | ++ (pIC50 5.00-5.99)
42 | Cc1ccccc1-c1ccc2nc(-c3ccc(Cl)cc3)c(CN3CCOCC3)n2c1 [Compound 115] | +++ (pIC50 ≧ 6.00)
43 | CCN(CC)C(=O)c1ccc2nc(-c3ccc(Cl)cc3)c(CN3CCOCC3)n2c1 [Compound 117] | + (pIC50 4.00-4.99)
44 | CCNC(=O)c1ccc2nc(-c3ccc(Cl)cc3)c(CN3CCOCC3)n2c1 [Compound 118] | + (pIC50 4.00-4.99)
45 | Clc1ccc(-c2nc3ccc(-c4cccs4)cn3c2CN2CCOCC2)cc1 [Compound 119] | ++ (pIC50 5.00-5.99)
46 | Clc1ccc(-c2nc3ccc(-c4ccccn4)cn3c2CN2CCOCC2)cc1 [Compound 120] | ++ (pIC50 5.00-5.99)
47 | CCNC(=O)c1cccc2nc(-c3ccc(Cl)cc3)c(CN3CCOCC3)n12 [Compound 121] | +− (pIC50 < 4.00)
48 | Clc1ccc(-c2nc3ccc(N4CCOCC4)cn3c2CN2CCOCC2)cc1 [Compound 122] | ++ (pIC50 5.00-5.99)
49 | Clc1ccc(-c2nc3ccc(Br)cn3c2CN2CCOCC2)cc1 [Compound 124] | + (pIC50 4.00-4.99)
50 | CN1CCN(Cc2c(-c3ccc(Cl)cc3)nc3ccc(-c4ccccc4)cn23)CC1 [Compound 125] | + (pIC50 4.00-4.99)
51 | COc1ccccc1C(=O)N1CCN(Cc2c(-c3ccc(Cl)cc3)nc3ccc(-c4ccccc4)cn23)CC1 [Compound 128] | +++ (pIC50 ≧ 6.00)
52 | COc1cccc(C(=O)N2CCN(Cc3c(-c4ccc(Cl)cc4)nc4ccc(-c5ccccc5)cn34)CC2)c1 [Compound 129] | +++ (pIC50 ≧ 6.00)
53 | O=C1CN(Cc2c(-c3ccc(Cl)cc3)nc3ccc(-c4ccccc4)cn23)CCN1 [Compound 130] | ++ (pIC50 5.00-5.99)
54 | O=C(C1CC1)N1CCN(Cc2c(-c3ccc(Cl)cc3)nc3ccc(-c4ccccc4)cn23)CC1 [Compound 133] | +++ (pIC50 ≧ 6.00)
55 | O=C1CN(Cc2c(-c3ccc(Cl)cc3)nc3ccc(-c4ccccc4)cn23)CCN1Cc1ccccc1 [Compound 134] | ++ (pIC50 5.00-5.99)
56 | c1ccc(-c2ccc3nc(-c4cccnc4)c(CN4CCOCC4)n3c2)cc1 [Compound 139] | + (pIC50 4.00-4.99)
